Measured values published in ChEMBL document CHEMBL1201862, “PubChem BioAssay data set” (2004).
Active and inactive are the calls of the source.

Key:
[1] = target: T1, Microphthalmia-associated transcription factor (Homo sapiens, UniProt O75030); experiment: TRPM1 promoter luciferase signal decrease, dose response, MITF inhibitor project, cell-based, SK-MEL-5, cherry-picked, set 3 (AID 493073); assay type: functional
T1 sequence (O75030 whole entry): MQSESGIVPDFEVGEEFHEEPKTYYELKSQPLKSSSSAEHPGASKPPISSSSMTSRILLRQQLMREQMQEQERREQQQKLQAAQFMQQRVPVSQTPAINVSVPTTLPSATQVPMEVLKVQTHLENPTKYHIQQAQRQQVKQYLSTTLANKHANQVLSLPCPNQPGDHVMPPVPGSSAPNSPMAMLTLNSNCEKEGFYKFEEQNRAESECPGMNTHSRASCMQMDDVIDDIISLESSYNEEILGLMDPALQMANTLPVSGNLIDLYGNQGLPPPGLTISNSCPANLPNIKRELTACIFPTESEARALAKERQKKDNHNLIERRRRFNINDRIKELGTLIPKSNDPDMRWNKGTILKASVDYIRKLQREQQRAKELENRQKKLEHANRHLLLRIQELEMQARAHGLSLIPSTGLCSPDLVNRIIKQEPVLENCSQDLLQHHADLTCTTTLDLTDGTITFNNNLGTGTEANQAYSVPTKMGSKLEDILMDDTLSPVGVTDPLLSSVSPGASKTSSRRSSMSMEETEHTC

[2] = HEK293 cell cytotoxicity, dose response, cytotoxicity control, plate reader, cherry-picked samples (AID 743446); assay type: functional, cell-based
[3] = HepG2 cell cytotoxicity, dose response, cytotoxicity control, plate reader, cherry-pick, antagonist series (AID 743416); assay type: functional, cell-based
[4] = MC4R antagonists, dose response, counter-screen for LGR2 antagonist project, cell-based, plate reader, cherry pick (AID 743444); assay type: functional;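 note: transfected HEK 293 cells stimulated with alpha-MSH peptide; potency of inhibitors of the alpha-MSH evoked signal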
[5] = LGR2 antagonists, dose response, cell-based, HEK293, CRE-luciferase reporter, cherry pick, set 2 (AID 743343); assay type: functional;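 note: transfected cells were stimulated with diluted bursicon conditioned medium after compound addition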
[6] = A549 cell cytotoxicity, dose response, cytotoxicity control, plate reader, cherry-pick, antagonist series (AID 743412); assay type: functional, cell-based
[7] = microbe, parasite or virus in culture; assay type: functional; settings: Mycobacterium tuberculosis
[8] = miR-122 activators in hepatoma reporter cells, dose response, cell-based, Huh7 psiCHECK-miR122, Renilla luciferase, cherry-picked (AID 651956); assay type: functional;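 note: huh7 hepatoma cells stably carrying a psiCHECK-2 miR-122 sensor plasmid; renilla luciferase signal reporting endogenous miR-122 activity after 48 h compound exposure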
[9] = target: T2, Low molecular weight phosphotyrosine protein phosphatase (Homo sapiens, UniProt P24666); assay type: functional; settings: read-out: IC50_Mean
T2 sequence (P24666 whole entry): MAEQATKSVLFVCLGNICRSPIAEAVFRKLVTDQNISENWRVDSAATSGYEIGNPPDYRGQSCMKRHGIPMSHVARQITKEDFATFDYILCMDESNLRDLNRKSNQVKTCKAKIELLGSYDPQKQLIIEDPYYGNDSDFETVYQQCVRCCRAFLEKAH

[10] = target: T2, Low molecular weight phosphotyrosine protein phosphatase; assay type: functional; settings: read-out: IC50_Mean; remark: listed apart in the source
[11] = target: Dual specificity protein phosphatase 3 (Homo sapiens, UniProt P51452); experiment: VHR phosphatase inhibition, dose response, selectivity assay for STEP inhibitor project, biochemical (AID 602374); assay type: functional; settings: read-out: IC50_Mean
Dual specificity protein phosphatase 3, sequence (P51452 whole entry): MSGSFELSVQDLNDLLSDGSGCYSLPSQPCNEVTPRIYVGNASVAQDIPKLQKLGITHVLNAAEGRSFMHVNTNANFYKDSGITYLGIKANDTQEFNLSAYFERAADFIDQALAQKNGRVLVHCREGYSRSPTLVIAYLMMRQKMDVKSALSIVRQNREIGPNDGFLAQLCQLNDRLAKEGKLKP

[12] = target: Tyrosine-protein phosphatase non-receptor type 11 (Homo sapiens, UniProt Q06124); experiment: SHP2 phosphatase inhibition, dose response, selectivity assay for STEP inhibitor project, biochemical (AID 602367); assay type: functional; settings: read-out: IC50_Mean
Tyrosine-protein phosphatase non-receptor type 11, sequence (Q06124 whole entry): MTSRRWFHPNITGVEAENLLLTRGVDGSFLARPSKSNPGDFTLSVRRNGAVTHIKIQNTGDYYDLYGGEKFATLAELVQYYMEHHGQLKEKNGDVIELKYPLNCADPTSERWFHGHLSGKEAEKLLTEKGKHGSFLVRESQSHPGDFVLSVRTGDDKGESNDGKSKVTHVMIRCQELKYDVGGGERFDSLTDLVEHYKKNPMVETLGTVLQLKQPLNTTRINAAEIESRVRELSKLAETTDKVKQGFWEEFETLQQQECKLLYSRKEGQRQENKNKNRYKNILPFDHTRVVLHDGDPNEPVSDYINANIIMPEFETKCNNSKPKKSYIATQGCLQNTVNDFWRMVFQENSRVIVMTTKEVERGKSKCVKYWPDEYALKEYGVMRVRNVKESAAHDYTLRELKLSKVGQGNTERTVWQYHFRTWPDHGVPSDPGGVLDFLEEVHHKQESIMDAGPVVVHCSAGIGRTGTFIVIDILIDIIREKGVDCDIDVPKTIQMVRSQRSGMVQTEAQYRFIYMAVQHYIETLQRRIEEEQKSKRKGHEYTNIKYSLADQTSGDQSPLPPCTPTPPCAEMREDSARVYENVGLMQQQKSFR

[13] = target: T3, Protein skinhead-1 (Caenorhabditis elegans, UniProt P34707); assay type: functional
T3 sequence (P34707 whole entry): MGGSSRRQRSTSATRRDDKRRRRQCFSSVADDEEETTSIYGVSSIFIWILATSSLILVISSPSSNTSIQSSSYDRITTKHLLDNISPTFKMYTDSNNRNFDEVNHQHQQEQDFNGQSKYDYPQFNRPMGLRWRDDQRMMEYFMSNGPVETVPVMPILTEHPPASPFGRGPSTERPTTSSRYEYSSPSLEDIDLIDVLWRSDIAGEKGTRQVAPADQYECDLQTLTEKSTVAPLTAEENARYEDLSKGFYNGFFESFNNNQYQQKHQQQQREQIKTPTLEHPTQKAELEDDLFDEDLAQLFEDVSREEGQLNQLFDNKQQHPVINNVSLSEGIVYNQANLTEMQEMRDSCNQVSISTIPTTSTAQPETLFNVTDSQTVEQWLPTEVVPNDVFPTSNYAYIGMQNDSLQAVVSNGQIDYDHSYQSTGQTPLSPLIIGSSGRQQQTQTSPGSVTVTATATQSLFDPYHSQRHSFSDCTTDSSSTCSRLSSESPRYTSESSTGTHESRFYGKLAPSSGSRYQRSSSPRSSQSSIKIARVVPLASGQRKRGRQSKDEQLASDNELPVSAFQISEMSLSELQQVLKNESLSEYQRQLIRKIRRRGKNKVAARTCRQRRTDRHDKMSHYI

[14] = target: Tyrosine-protein phosphatase non-receptor type 5 (Homo sapiens, UniProt P54829); experiment: STEP phosphatase inhibitors, confirmation, biochemical, fluorescence intensity, uHTS hits (AID 602372); assay type: functional; settings: read-out: IC50_Mean
Tyrosine-protein phosphatase non-receptor type 5, sequence (P54829 whole entry, the tested form may be a part): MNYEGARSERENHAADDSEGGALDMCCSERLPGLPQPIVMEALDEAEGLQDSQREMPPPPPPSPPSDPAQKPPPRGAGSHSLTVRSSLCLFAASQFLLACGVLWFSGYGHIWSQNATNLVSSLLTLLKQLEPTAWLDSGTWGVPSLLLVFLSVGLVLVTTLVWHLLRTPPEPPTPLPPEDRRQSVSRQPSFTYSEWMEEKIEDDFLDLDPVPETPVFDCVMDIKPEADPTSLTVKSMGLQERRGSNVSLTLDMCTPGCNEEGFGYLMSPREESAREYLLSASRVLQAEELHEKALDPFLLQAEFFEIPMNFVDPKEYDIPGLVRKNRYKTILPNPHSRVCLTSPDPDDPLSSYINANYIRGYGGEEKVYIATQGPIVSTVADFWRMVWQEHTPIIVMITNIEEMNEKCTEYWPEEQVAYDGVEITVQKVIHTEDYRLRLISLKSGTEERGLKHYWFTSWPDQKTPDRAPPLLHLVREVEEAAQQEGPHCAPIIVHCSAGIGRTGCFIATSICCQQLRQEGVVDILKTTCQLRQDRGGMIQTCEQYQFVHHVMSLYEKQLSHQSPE

[15] = target: T4, Oxysterols receptor LXR-beta (Homo sapiens, UniProt P55055); assay type: functional, cell-based;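 note: agonist activity at LXR measured by a cell-based luminescence readout across a dose range, run as a counterscreen for daf-12 agonists; HEK293 cells with Gal4-LXR fusion and GAL4-driven luciferase reporter; potency for activation of Gal4-LXR reporter so compounds are agonists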
T4 sequence (P55055 whole entry): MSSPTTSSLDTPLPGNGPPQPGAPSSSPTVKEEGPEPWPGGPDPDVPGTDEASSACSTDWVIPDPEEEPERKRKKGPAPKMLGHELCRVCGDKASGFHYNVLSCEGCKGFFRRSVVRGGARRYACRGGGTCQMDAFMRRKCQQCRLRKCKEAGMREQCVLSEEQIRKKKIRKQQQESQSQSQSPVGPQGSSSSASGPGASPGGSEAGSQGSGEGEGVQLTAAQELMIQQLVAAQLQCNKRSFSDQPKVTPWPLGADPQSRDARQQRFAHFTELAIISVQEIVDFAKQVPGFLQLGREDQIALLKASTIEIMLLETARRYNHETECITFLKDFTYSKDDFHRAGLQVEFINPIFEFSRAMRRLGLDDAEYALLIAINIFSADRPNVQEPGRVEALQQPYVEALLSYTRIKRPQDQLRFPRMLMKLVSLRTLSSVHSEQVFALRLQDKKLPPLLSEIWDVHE

[16] = CEM21 lymphoblast cell cytotoxicity, dose response, cytotoxicity control for viral fusion inhibitor project, CellTiter-Glo luminescence, cherry-picked (AID 652042); assay type: functional, cell-based;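 note: potency for signal decrease meaning cytotoxicity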
[17] = inhibitors of clade B AD8 Env fusion, dose response, cell-based, cherry-pick (AID 652062); assay type: functional;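 note: luciferase signal from cell-cell fusion driven by HIV-1 clade B AD8 Env; potency is for inhibitors of fusion seen as a drop in luminescence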
[18] = inhibitors of HIV Env-driven cell fusion, dose response, cherry-pick (AID 652057); assay type: functional, cell-based
[19] = target: fMet-Leu-Phe receptor (Homo sapiens, UniProt P21462); experiment: FPR ligands, dose response (AID 519); assay type: functional
fMet-Leu-Phe receptor, sequence (P21462 whole entry): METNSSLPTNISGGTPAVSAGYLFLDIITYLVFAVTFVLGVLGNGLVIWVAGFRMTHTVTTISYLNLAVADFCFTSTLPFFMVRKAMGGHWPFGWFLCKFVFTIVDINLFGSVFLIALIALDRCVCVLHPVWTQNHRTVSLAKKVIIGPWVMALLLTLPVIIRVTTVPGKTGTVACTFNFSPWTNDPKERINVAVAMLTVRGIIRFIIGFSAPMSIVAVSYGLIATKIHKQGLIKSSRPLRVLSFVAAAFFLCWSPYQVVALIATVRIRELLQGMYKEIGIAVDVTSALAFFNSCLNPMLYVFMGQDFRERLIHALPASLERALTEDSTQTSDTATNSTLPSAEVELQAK

[20] = cells; assay type: functional, cell-based
[21] = target: T5, Nuclear receptor subfamily 0 group B member 1 (Homo sapiens, UniProt P51843); assay type: functional, cell-based;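 note: HEK293T cells transfected with SF-1 and DAX-1 plus StAR promoter luciferase reporter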
T5 sequence (P51843 whole entry): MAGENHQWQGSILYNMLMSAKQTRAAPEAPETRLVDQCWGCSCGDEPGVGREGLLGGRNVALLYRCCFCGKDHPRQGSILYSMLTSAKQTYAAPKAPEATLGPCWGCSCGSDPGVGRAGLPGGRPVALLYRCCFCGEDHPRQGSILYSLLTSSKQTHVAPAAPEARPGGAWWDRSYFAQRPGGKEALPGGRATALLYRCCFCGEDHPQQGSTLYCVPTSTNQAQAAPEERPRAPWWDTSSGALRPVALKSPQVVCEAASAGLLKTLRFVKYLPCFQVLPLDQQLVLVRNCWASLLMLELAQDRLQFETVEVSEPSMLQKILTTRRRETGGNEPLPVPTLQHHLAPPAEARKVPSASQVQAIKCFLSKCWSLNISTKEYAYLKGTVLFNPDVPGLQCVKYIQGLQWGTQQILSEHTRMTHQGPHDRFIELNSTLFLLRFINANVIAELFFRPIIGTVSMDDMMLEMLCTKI

[22] = target: Protein disulfide-isomerase (Homo sapiens, UniProt P07237); experiment: PDI inhibitors, insulin turbidity readout, confirmation, biochemical, dry powder samples, set 2 (AID 652146)
Protein disulfide-isomerase, sequence (P07237 whole entry): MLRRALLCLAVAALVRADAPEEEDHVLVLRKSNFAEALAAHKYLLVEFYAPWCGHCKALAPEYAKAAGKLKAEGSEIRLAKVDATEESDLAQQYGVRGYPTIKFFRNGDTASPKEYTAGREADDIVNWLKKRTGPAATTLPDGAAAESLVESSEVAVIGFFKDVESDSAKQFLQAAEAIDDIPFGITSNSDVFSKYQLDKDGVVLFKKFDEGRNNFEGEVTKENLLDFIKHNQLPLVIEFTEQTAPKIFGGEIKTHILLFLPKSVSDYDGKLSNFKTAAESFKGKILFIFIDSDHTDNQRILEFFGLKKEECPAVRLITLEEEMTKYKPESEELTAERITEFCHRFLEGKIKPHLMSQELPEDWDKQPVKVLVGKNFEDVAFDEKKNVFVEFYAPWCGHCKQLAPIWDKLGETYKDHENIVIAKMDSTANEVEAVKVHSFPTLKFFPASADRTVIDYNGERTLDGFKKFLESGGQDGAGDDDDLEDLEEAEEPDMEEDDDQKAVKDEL

[23] = human group III sPLA2 inhibitors, dose response, biochemical, QFRET, IC50 (AID 743457);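 note: green fluorescence rise as the enzyme cleaves BODIPY PC-A2 in liposomes; potency for inhibition of the enzyme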
[24] = ZM109 Env clade C HIV-1 fusion inhibitors, dose response, HeLa effector, CEM target cells, luciferase, cherry-pick (AID 652058); assay type: functional, cell-based
[25] = off-target signal loss in HeLa-CEM21 co-culture – HeLa F-luc CTL cells, cherry-picked, counter-screen for HIV-1 Env fusion inhibitor project, dose response (AID 652040); assay type: functional, cell-based;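 note: potency for signal decrease marking cytotoxic or nonspecific inhibition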
[26] = target: DNA (cytosine-5)-methyltransferase 1 (Homo sapiens, UniProt P26358); experiment: DNMT1 methyltransferase inhibitors, confirmation, biochemical, fluorescent molecular beacon (AID 602386); assay type: functional
[27] = target: Genome polyprotein (dengue virus type 2, UniProt P29990); experiment: Dengue-2 NS5 methyltransferase inhibitors, primary screen, biochemical, confirmation dose response (AID 588689); assay type: functional
[28] = THP-1 cell cytotoxicity, dose response, cytotoxicity control for Vif-APOBEC3G degradation inhibitor project, THP-1 cells (AID 1117359); assay type: functional; settings: Human immunodeficiency virus 1, THP-1
[29] = target: T6, Probable nicotinate-nucleotide adenylyltransferase (Staphylococcus aureus (strain N315), UniProt P65502); assay type: functional, Staphylococcus aureus subsp. aureus N315; settings: read-out: IC50_Mean;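 for IC50 Mean: confirmatory dose-response retesting of NadD inhibitor hits first found in an ultra-high-throughput screen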
T6 sequence (P65502 whole entry): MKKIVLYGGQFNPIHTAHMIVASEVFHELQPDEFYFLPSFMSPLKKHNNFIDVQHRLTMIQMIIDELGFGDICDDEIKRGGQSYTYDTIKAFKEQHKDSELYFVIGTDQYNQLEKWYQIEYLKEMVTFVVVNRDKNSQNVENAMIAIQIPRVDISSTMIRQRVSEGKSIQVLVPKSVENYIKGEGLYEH

[30] = target: T6, Probable nicotinate-nucleotide adenylyltransferase; assay type: functional, Staphylococcus aureus subsp. aureus N315
[31] = HEp-2 cell cytotoxicity, dose response, cytotoxicity control for RSV inhibitor project, HTS (AID 2410); assay type: functional; settings: human respiratory syncytial virus
[32] = target: T7, Fatty acid synthase (Homo sapiens, UniProt P49327); experiment: FAS thioesterase domain inhibitors, dose response, biochemical, endpoint fluorescence intensity, uHTS hits (AID 624327); assay type: functional;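 note: fluorescence from hydrolysis of an O-methyl fluorescein acyl ester substrate by the enzyme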
T7 sequence (P49327 whole entry, the tested form may be a part): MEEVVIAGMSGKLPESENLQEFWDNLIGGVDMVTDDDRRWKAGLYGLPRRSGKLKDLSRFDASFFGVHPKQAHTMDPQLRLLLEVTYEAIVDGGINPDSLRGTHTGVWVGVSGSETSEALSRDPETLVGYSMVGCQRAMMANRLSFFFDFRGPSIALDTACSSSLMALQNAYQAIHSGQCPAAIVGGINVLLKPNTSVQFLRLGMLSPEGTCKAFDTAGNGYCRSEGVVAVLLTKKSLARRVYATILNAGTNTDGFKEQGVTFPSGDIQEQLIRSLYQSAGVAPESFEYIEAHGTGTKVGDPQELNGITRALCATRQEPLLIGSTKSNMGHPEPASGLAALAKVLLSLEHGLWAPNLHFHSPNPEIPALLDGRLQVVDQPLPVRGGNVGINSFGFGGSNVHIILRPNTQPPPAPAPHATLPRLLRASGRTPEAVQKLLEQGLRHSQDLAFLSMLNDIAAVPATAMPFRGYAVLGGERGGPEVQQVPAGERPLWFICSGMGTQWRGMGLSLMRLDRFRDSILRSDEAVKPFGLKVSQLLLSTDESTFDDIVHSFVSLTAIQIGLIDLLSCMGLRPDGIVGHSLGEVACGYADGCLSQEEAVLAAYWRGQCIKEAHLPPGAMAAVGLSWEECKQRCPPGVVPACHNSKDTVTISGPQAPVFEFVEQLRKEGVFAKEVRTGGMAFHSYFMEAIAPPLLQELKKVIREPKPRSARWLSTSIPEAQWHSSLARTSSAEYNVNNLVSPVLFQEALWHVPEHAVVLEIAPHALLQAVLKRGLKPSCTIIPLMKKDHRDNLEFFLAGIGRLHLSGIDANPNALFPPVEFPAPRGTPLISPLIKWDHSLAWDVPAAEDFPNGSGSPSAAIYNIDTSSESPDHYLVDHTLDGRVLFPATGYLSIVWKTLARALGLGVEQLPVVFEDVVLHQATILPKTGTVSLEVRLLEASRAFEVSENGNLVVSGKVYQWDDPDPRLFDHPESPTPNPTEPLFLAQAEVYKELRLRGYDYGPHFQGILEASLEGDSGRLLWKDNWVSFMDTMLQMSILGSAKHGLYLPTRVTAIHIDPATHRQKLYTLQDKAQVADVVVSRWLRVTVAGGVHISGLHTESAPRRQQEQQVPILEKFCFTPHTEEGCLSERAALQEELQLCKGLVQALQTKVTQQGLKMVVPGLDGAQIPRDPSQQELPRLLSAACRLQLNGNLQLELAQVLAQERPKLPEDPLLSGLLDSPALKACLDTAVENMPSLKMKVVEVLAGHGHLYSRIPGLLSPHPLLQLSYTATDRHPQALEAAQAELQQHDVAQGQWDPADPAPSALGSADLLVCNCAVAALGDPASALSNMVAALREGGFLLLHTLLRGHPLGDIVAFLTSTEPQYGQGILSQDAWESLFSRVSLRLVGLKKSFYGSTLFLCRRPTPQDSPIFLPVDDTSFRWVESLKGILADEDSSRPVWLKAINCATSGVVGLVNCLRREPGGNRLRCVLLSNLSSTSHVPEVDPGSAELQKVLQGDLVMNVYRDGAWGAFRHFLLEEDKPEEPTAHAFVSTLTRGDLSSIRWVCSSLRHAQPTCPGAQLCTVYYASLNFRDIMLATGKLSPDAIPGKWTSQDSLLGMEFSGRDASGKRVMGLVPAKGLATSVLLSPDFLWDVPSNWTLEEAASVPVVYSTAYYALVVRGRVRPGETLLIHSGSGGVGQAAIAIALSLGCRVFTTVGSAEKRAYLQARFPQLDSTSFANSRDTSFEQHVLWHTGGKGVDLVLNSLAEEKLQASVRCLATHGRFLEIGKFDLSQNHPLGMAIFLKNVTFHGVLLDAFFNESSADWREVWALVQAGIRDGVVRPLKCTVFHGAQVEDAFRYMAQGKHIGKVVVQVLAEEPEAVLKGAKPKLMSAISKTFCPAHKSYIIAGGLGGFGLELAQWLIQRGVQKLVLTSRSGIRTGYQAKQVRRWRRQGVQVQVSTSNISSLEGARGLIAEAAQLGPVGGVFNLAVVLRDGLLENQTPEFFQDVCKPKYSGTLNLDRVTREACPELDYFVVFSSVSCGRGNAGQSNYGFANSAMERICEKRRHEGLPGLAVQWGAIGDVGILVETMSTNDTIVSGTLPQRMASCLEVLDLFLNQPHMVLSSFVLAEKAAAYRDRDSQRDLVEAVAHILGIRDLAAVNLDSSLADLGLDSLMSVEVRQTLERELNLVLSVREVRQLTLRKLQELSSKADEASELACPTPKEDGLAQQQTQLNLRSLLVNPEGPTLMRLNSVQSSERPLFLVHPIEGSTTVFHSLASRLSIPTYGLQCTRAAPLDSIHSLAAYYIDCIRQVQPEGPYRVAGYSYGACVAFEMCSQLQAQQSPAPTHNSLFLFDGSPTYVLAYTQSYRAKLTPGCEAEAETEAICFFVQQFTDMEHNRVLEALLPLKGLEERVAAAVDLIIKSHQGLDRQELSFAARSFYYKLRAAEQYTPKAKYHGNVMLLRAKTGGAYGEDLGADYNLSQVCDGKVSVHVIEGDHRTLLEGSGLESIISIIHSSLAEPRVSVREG

[33] = target: T7, Fatty acid synthase; experiment: FAS thioesterase domain inhibitors, dose response, biochemical, kinetic fluorescence intensity (AID 624326); assay type: functional;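 note: rate of fluorescence rise from hydrolysis of a fluorogenic O-methyl fluorescein ester substrate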
[34] = cells; assay type: functional, cell-based; remark: listed apart in the source
[35] = cells; assay type: functional, cell-based; remark: listed apart in the source

Q: For `CC1(C)CC(NC(=O)c2ccc(Cl)c(S(=O)(=O)N(Cc3ccccc3)c3ccccc3)c2)CC(C)(C)N1`, which AC50 [1] is on record?
A: 10.3 µM (active)

Q: What about the AC50 [2] of the same compound?
A: 15.7 µM (active)

Q: And the AC50 [3]?
A: 8.14 µM (active)

Q: What about the AC50 [4] of the same compound?
A: 29.4 µM (active)

Q: What about the AC50 [5] of the same compound?
A: 19.4 µM (active)

Q: And the AC50 [6]?
A: 7.96 µM (active)

Q: And the CC50 [7]?
A: 12.7 µM (active)

Q: With `CCNC(=O)C[C@@H]1CC[C@@H]2[C@@H](COc3ccc(NC(=O)C4CCCCC4)cc3C(=O)N2C)O1` as the compound, how does the AC50 [8] read?
A: 33.4 µM (active)

Q: Which results are given for `O=C1NC(=O)N(CCc2ccc(F)cc2)C(=O)/C1=C\NCc1ccc2c(c1)OCO2`?
A: IC50 [9]: 3.2 µM (active); IC50 [10]: > 80 µM (inactive)

Q: Which IC50 [11] does the source give for `COc1cccc(-c2cc(C(=O)Nc3nc4ccccc4s3)c3ccccc3n2)c1` here?
A: 1.62 µM (active)

Q: And the IC50 [12]?
A: 8.43 µM (active)

Q: And the IC50 [13]?
A: > 100 µM (inactive)

Q: And the IC50 [14]?
A: 23.2 µM (inactive)

Q: Which EC50 [15] does the source give for `c1ccc([C@H]2CN3C(=N2)Sc2ccccc23)cc1` here?
A: > 67.1 µM (inactive)

Q: For `C[C@H](CO)N1C[C@H](C)[C@H](CN(C)S(=O)(=O)c2ccccc2)Oc2ccc(NC(=O)Nc3ccc4c(c3)OCO4)cc2CC1=O`, which AC50 [16] is on record?
A: 58.4 µM (active)

Q: And the AC50 [17]?
A: 1.15 µM (active)

Q: And the AC50 [18]?
A: < 0.26 µM (active)

Q: Which Ki [19] does the source give for `Cc1ccc(Nc2nc(C3CC3)cs2)cc1` here?
A: 43.1 µM (inactive)

Q: With `COC(=O)C1CCC(=O)N1C(c1ccc(OC)cc1)c1cc(OC)c(OC)c(OC)c1` (stereo unspecified) as the compound, how does the IC50 [20] read?
A: > 67.5 µM (inactive)

Q: And the IC50 [21]?
A: > 67.5 µM (inactive)

Q: Which AC50 [22] does the source give for `CCOC(=O)C1(CCOC)CCCN(Cc2ccc(Cl)cc2)C1` (stereo unspecified) here?
A: > 30 µM (inactive)

Q: Which IC50 [23] does the source give for `O=C(NN=C(S)NCc1ccccc1)c1ccccc1OC(F)F` here?
A: > 122 µM (inactive)

Q: With `Cc1c(C)c2cc(Cl)c(O)c(CN3CCCCC3)c2oc1=O` as the compound, how does the Ki [19] read?
A: > 66.7 µM (inactive)

Q: Which results are given for `CCOC(=O)Cn1nnnc1CN(CCc1ccccc1)Cc1cc2cc(CC)ccc2nc1O`?
A: AC50 [16]: 54.2 µM (active); AC50 [17]: 29.3 µM (active); AC50 [24]: 1.17 µM (active); AC50 [25]: 6.05 µM (active); AC50 [18]: 2.97 µM (active)

Q: For `O=C1C=C(N2CC2)c2ccccc2C1=O`, which IC50 [26] is on record?
A: 1.87 µM (active)

Q: And the IC50 [27]?
A: 29.7 µM (active)

Q: What about the IC50 [13] of the same compound?
A: > 100 µM (inactive)

Q: And the CC50 [28]?
A: 32.7 µM (active)

Q: Which IC50 [29] does the source give for `O=[N+]([O-])c1ccc(Cl)c(S(=O)(=O)Nc2cccc(-c3ccc(N4CCCC4)nn3)c2)c1` here?
A: 23.5 µM (active)

Q: What about the IC50 [30] of the same compound?
A: 6.57 µM (active)

Q: And the CC50 [31]?
A: 14.7 µM (active)

Q: And the IC50 [32]?
A: 8.75 µM (active)

Q: What about the IC50 [33] of the same compound?
A: 7.65 µM (active)

Q: For `O=C(NCC1CCCO1)c1cc(-c2ccccc2F)no1` (stereo unspecified), which EC50 [34] is on record?
A: 190 µM (active)

Q: And the EC50 [15]?
A: > 67.5 µM (inactive)

Q: What about the EC50 [35] of the same compound?
A: 43.8 µM (active)
